In US20150065421A1, “BASAL INSULIN THERAPY” (SANOFI, priority 2012, published 2015):

System: people at high risk for vascular disease with either IFG, IGT, or early type 2 diabetes
Assay: ORIGIN trial: glycemic control (FPG, A1C)
Assay type: in vivo, human
Excerpt: Participants were asked to self-administer daily subcutaneous saline injections and to check their capillary glucose levels during a 10 day run-in period. Adherent participants were then provided with lifestyle advice and randomly allocated to either insulin glargine (Lantus™) or standard approaches to glycaemic control. Participants allocated to insulin glargine who were also taking a thiazolidinedione stopped that medication at the time of randomization; otherwise the insulin glargine was added to their glycemic regimen. These participants were instructed to inject insulin glargine in the evening, starting at 2, 4 or 6 units (depending on their initial FPG) and to increase the dose at least once per week targeting a self-measured FPG level ≦5.3 mmol/l (95 mg/dl) and ≧4 mmol/l (72 mg/dl). […] If participants developed uncontrolled hyperglycemia, investigators were permitted to add rapid-acting insulin. No other glucose-lowering medication could be added or increased. FPG levels were measured in the local laboratory at every visit and the results were regularly reviewed along with the dose of insulin to ensure that insulin was being effectively trirated. People not diagnosed with diabetes by the time of the penultimate study visit down-titrated insulin glargine by 10 units per day and stopped any metformin that was prescribed.
Outcomes and other data were collected at scheduled study visits at 0.5, 1, 2, and 4 months after randomization and every 4 months thereafter. Weight, waist and hip circumference were measured annually. HbA1c levels were assayed in local laboratories at every visit for the first year and then annually in people without diabetes and every 4 months for people with diabetes. A first morning urine collection was sent centrally and assayed for creatinine and albumin at baseline, 2 yrs and study end.
Participants assigned to standard therapy continued their prior oral therapies and were managed according to the investigators' judgement and local guidelines for glycemic control and therapeutic approaches. Investigators were advised not to prescribe insulin for standard participants unless they were on full doses of 2 or more oral agents. If insulin was added glargine was not to be used. Participants assigned to basal insulin glargine who were taking a thiazolidinedione prior to randomization stopped this medication but continued to take other glucose-lowering agents. Insulin glargine (Lantus®, Sanofi) was added to their regimen starting at 2 to 6 units daily, based on fasting glucose levels. Participants were advised to inject the insulin in the evening and to self-titrate the dosage using a simple algorithm supported by the site investigators. Self-measured, plasma-referenced fasting capillary blood glucose tests were done at least twice-weekly to guide titration, with the goal of achieving and maintaining fasting glucose 5.3 mmol/l (≦95 mg/dl). Other oral agents could be continued, reduced, or discontinued as judged appropriate during treatment with insulin glargine. The only oral agent that could be added (if not previously used) was metformin, which the site investigator initiated for individual participants at doses of 500-1000 mg/day if judged necessary to limit the risk of hypoglycemia. The importance of lifestyle management was continuously reinforced in both treatment groups.
In addition to self-measured glucose tests, venous blood for measurement of fasting plasma glucose (FPG) and A1C at local laboratories was collected at intervals during treatment. In the case of A1C, measurements were done at baseline, yearly thereafter, and at the end of treatment for all participants. Measurements of FPG were done annually and at the end of treatment for all participants in the glargine treatment group, and at baseline, after 2 years, and at the end of treatment for those using standard therapy. […]

[1] = fully adjusted logistic regression, glargine vs standard care, p<0.001
[2] = participants with diabetes, 2 years
[3] = participants with diabetes, 5 years
[4] = participants with diabetes, 7 years
[5] = participants without diabetes, 5 years
[6] = without diabetes at entry, throughout randomized treatment, both regimens

“(Gly A21) Arg (B31) Arg (B32) human insulin [insulin glargine]” was tested, and the “A1c (%), median (interquartile range)” value (Year 1, baseline 6.4) was 5.9 (5.5, 6.4) %, the “FPG (mM), median (interquartile range)” value (Year 1, baseline 6.9) was 5.2 (4.6, 5.9) mM and the “A1c (%), median (interquartile range)” value (Year 2) was 6.0 (5.5, 6.5) %. For the same substance, the “FPG (mM), median (interquartile range)” value (Year 2) was 5.0 (4.4, 5.8) mM, the “A1c (%), median (interquartile range)” value (Year 3) was 6.0 (5.6, 6.6) % and the “FPG (mM), median (interquartile range)” value (Year 3) was 5.0 (4.4, 5.7) mM. For the same substance, the “A1c (%), median (interquartile range)” value (Year 4) was 6.1 (5.7, 6.7) %, the “FPG (mM), median (interquartile range)” value (Year 4) was 5.1 (4.5, 5.8) mM and the “A1c (%), median (interquartile range)” value (Year 5) was 6.2 (5.7, 6.8) %. The “FPG (mM), median (interquartile range)” value (Year 5) was 5.1 (4.5, 6.0) mM, the “A1c (%), median (interquartile range)” value (Year 6) was 6.3 (5.8, 6.8) % and the “FPG (mM), median (interquartile range)” value (Year 6) was 5.2 (4.6, 6.1) mM. The “A1c (%), median (interquartile range)” value (Year 7) was 6.2 (5.8, 7.1) %, the “FPG (mM), median (interquartile range)” value (Year 7) was 5.2 (4.5, 6.3) mM and the “increase in the likelihood of maintaining mean A1C below 6.5% for 5 years” value (allocation to basal insulin glargine vs standard care) was 2-3 fold. The “participants achieving a FPG level ≦5.2 mmol/l” value (by 1 year, maintained throughout the trial) was 50%, the “participants achieving A1C <6.5%” value (diabetic subgroup, 1 year, 47% before treatment) was 74% and the “participants achieving A1C <7.0%” value (diabetic subgroup, 1 year, 66% before treatment) was 88%. For the same substance, the “participants achieving A1C <7.0%” value (diabetic subgroup, 5 years) was 77%, the “participants achieving A1C <6.5%” value (diabetic subgroup, after 5 years) was 60% and the “people achieving FPG levels below 5.3 mmol/l (95 mg/dl)” value (for most of the trial) was “more than 50%”. For the same substance, the “people achieving FPG levels ≦6.0 mmol/l (108 mg/dl)” value (for most of the trial) was 75%, the “OR (95% CI), 1-year A1C 6.5% (attainment)” value [1] was 2.50 (2.29-2.74) and the “OR (95% CI), 1-year A1C 7.0% (attainment)” value [1] was 2.735 (2.440-3.067). The “OR (95% CI), 5-year mean A1C 6.5% (maintenance)” value [1] was 2.98, the “OR (95% CI), 5-year mean A1C 7.0% (maintenance)” value [1] was 2.408 (2.122-2.732) and the “OR (95% CI), 5-year mean A1C 6.5% (maintenance)” value (fully adjusted logistic regression, glargine vs standard care, p<0.001, listed as Glargine) was 2.975 (2.671-3.315). The “median A1C (inter-quartile range)” value (participants with diabetes, 1 year, baseline 6.5) was 6.0 (5.5-6.5) %, the “median FPG (inter-quartile range)” value (participants with diabetes, 1 year, baseline 7.2) was 5.2 (4.6-5.9) mmol/l and the “median A1C (inter-quartile range)” value [2] was 6.0 (5.6-6.6) %. The “median FPG (inter-quartile range)” value [2] was 5.0 (4.4-5.8) mmol/l, the “median A1C (inter-quartile range)” value [3] was 6.3 (5.8-6.9) % and the “median FPG (inter-quartile range)” value [3] was 5.1 (4.5-6.1) mmol/l. For the same substance, the “median A1C (inter-quartile range)” value [4] was 6.3 (5.8-6.9) %, the “median FPG (inter-quartile range)” value [4] was 5.3 (4.5-6.4) mmol/l and the “median A1C” value (participants without diabetes, 1 year, baseline 5.7) was 5.6%. The “median FPG (inter-quartile range)” value (participants without diabetes, 1 year, baseline 6.1) was 5.0 (4.5-5.5) mmol/l, the “median FPG (inter-quartile range)” value (participants without diabetes, 2 years) was 4.9 (4.5-5.5) mmol/l and the “median A1C” value [5] was 5.8%. For the same substance, the “median FPG (inter-quartile range)” value [5] was 5.0 (4.5-5.7) mmol/l, the “median FPG (inter-quartile range)” value (participants without diabetes, 7 years) was 5.1 (4.5-5.8) mmol/l and the “participants achieving A1C <6.5%” value [6] was “more than 75%”. The “participants achieving A1C <7.0%” value [6] was “more than 90%”.
